This is an account of results in patent US9359339B2, “Glucagon receptor antagonist compounds, compositions containing such compounds and methods of use” (Merck Sharp & Dohme Corp., priority 2009, dated 2016).

The test addresses human glucagon receptor (Homo sapiens (Human), UniProt P47871). The experiment in a line: Glucagon Receptor Binding Assay (125I-glucagon SPA, CHO cell membranes). Particulars: inhibition of 125I-Glucagon binding to membranes of CHO cells expressing cloned human glucagon receptor; more active isomer. On the procedure:
Glucagon Receptor Binding Assay
A stable CHO (Chinese hamster ovary) cell line expressing cloned human glucagon receptor was maintained as described (Chicchi, et. al. J Biol Chem 272, 7765-9 (1997); Cascieri, et. al. J Biol Chem 274, 8694-7 (1999)). To determine antagonistic binding affinity of compounds, 0.001-0.003 mg of cell membranes from these cells were pre-incubated with 0.100 mg WGA-coated PVT SPA beads (Amersham) for 20 minutes at room temperature in 25 μL of a buffer containing 50 mM Tris-HCl (pH 7.5), 5 mM MgCl2, 2 mM EDTA, 0.1% BSA and 3% glycerol in Costar 384 well plates with clear bottoms (#3706). Next, 25 μL of ^125I-Glucagon (New England Nuclear, MA) (1×10^−14 mol per well) and either 1 μL solutions of test compounds or 0.001 mM unlabeled glucagon or DMSO were added and mixed. After 4-12 hours incubation at room temperature, the radioactivity bound to the cell membranes was determined in a radioactive emission detection counter (Wallac-Microbeta). Data were analyzed using the Data Analyzer software program of Merck & Co., Inc. The IC50 values were calculated using non-linear regression analysis assuming single-site competition.

Chain of human glucagon receptor (P47871 26-477): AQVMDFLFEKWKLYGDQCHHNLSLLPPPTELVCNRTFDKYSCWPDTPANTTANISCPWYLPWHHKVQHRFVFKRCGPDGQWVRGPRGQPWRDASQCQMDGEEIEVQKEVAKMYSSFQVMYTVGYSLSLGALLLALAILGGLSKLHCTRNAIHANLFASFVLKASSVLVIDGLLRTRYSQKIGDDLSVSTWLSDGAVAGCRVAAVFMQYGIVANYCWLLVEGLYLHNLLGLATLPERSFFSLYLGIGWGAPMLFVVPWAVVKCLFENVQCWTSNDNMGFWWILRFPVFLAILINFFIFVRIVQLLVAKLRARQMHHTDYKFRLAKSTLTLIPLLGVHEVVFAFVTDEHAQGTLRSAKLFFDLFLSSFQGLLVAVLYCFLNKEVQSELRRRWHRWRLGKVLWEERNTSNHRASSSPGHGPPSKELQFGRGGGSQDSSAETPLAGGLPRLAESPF

Usually IC50 stands for the concentration at which inhibition is half-maximal. Regarding `CCC[C@H](c1ccc(C(=O)NCCC(=O)O)cc1)C(c1ccc(Cl)cc1)c1csc2c(C#N)cc(Cl)cc12` (stereo partly drawn) [Example 1, N-(4-{(1S)-1-[(5-CHLORO-7-CYANO-1-BENZOTHIEN-3-YL)(4-CHLOROPHENYL)METHYL]BUTYL}BENZOYL)-β-ALANINE], the concentration for half-maximal inhibition (IC50) is 6.2 nM.
Under `CCCC[C@H](c1ccc(C(=O)NCCC(=O)O)cc1)C(c1ccc(Cl)cc1)c1csc2c(-c3ccnn3C)cc(F)cc12` (stereo partly drawn) [Example 2, N-[4-((1S)-1-{(4-CHLOROPHENYL)[5-FLUORO-7-(1-METHYL-1H-PYRAZOL-5-YL)-1-BENZOTHIEN-3-YL]METHYL}PENTYL)BENZOYL]-β-ALANINE] stands 4.7 nM; under `CCC[C@H](c1ccc(C(=O)Nc2nnn[nH]2)cc1)C(c1ccc(Cl)cc1)c1csc2c(Br)cc(C)cc12` (stereo partly drawn) [Example 3, 4-{(1S)-1-[(7-BROMO-5-METHYL-1-BENZOTHIEN-3-YL)(4-CHLOROPHENYL)METHYL]BUTYL}-N-1H-TETRAZOL-5-YLBENZAMIDE], 2.3 nM.
The result for `CCC[C@H](c1ccc(C(=O)NCc2nn[nH]n2)cc1)C(c1ccc(Cl)cc1)c1csc2c(Br)cc(C)cc12` (stereo partly drawn) [Example 4, 4-{(1S)-1-[(7-BROMO-5-METHYL-1-BENZOTHIEN-3-YL)(4-CHLOROPHENYL)METHYL]BUTYL}-N-(2H-TETRAZOL-5-YLMETHYL)BENZAMIDE] reads 2.5 nM; that for `CCC[C@H](c1ccc(C(=O)NCCC(=O)O)cc1)C(c1ccc(Cl)cc1)c1csc2c(C)cc(Cl)cc12` (stereo partly drawn) [Example 6, N-(4-{(1S)-1-[(5-CHLORO-7-METHYL-1-BENZOTHIEN-3-YL)(4-CHLOROPHENYL)METHYL]BUTYL}BENZOYL)-β-ALANINE], 28 nM.
The result for `CCC[C@H](c1ccc(C(=O)NCCC(=O)O)cc1)C(c1ccc(Cl)cc1)c1c(C)sc2ccccc12` (stereo partly drawn) [Example 8, N-(4-{(1S)-1-[(2-METHYL-1-BENZOTHIEN-3-YL)(4-CHLOROPHENYL)METHYL]BUTYL}BENZOYL)-β-ALANINE] reads 2.2 nM.
The molecule `CCC[C@H](c1ccc(C(=O)NCCC(=O)O)cc1)C(c1ccc(Cl)cc1)c1csc2c(C#N)cc(F)cc12` (stereo partly drawn) [Example 13, N-(4-{(1S)-1-[(5-FLUORO-7-CYANO-1-BENZOTHIEN-3-YL)(4-CHLOROPHENYL)METHYL]BUTYL}BENZOYL)-β-ALANINE] gave a half-inhibitory concentration (IC50) of 1.1 nM. Compared with the last molecule, the IC50 is about 2-fold lower.
The result for `CCC[C@H](c1ccc(C(=O)NCCC(=O)O)cc1)C(c1ccc(Cl)cc1)c1csc2c(C#N)cc(C)cc12` (stereo partly drawn) [Example 14, N-(4-{(1S)-1-[(5-METHYL-7-CYANO-1-BENZOTHIEN-3-YL)(4-CHLOROPHENYL)METHYL]BUTYL}BENZOYL)-β-ALANINE] reads 1.3 nM.
The result for `CCC[C@H](c1ccc(C(=O)NCCC(=O)O)cc1)C(c1ccc(Cl)cc1)c1csc2c(C#N)cc(C(F)(F)F)cc12` (stereo partly drawn) [Example 15, N-(4-{(1S)-1-[(5-TRIFLUOROMETHYL-7-CYANO-1-BENZOTHIEN-3-YL)(4-CHLOROPHENYL)METHYL]BUTYL}BENZOYL)-β-ALANINE] reads 1.7 nM.
Under `CCC[C@H](c1ccc(C(=O)NCCC(=O)O)cc1)C(c1ccc(Cl)cc1)c1c(C)sc2c(C#N)cc(Cl)cc12` (stereo partly drawn) [Example 19, N-(4-{(1S)-1-[(2-METHYL-5-CHLORO-7-CYANO-1-BENZOTHIEN-3-YL)(4-CHLOROPHENYL)METHYL]BUTYL}BENZOYL)-β-ALANINE] stands 7.8 nM; under `CCC[C@H](c1ccc(C(=O)NCCC(=O)O)cc1)C(c1ccc(Cl)c(Cl)c1)c1csc2c(C#N)cc(Cl)cc12` (stereo partly drawn) [Example 21, N-(4-{(1S)-1-[(5-CHLORO-7-CYANO-1-BENZOTHIEN-3-YL)(3,4-DICHLOROPHENYL)METHYL]BUTYL}BENZOYL)-β-ALANINE], 0.7 nM; under `CCC[C@H](c1ccc(C(=O)NCCC(=O)O)cc1)C(c1ccc(OC(F)(F)F)cc1)c1csc2c(C#N)cc(C)cc12` (stereo partly drawn) [Example 23, N-(4-{(1S)-1-[(5-METHYL-7-CYANO-1-BENZOTHIEN-3-YL)(4-TRIFLUOROMETHOXYPHENYL)METHYL]BUTYL}BENZOYL)-β-ALANINE], 0.2 nM.
For the molecule `CCC[C@H](c1ccc(C(=O)NCCC(=O)O)cc1)C(c1ccc(OC(F)(F)F)cc1)c1csc2c(C#N)cc(Cl)cc12` (stereo partly drawn) [Example 25, N-(4-{(1S)-1-[(5-CHLORO-7-CYANO-1-BENZOTHIEN-3-YL)(4-TRIFLUOROMETHOXYPHENYL)METHYL]BUTYL}BENZOYL)-β-ALANINE], the IC50 came to 0.1 nM.
The molecule `N#Cc1cc(Cl)cc2c(C(c3ccc(Cl)cc3)[C@H](CCC(F)(F)F)c3ccc(C(=O)NCCC(=O)O)cc3)csc12` (stereo partly drawn) [Example 27, N-(4-{(1S)-1-[(5-CHLORO-7-CYANO-1-BENZOTHIEN-3-YL)(4-CHLOROPHENYL)METHYL]-4,4,4-TRIFLUOROBUTYL}BENZOYL)-β-ALANINE] had an IC50 of 0.2 nM.
`CCCC[C@H](c1ccc(C(=O)NCCC(=O)O)cc1)C(c1ccc(Cl)cc1)c1csc2c(C#N)cc(Cl)cc12` (stereo partly drawn) [Example 29, N-(4-{(1S)-1-[(5-CHLORO-7-CYANO-1-BENZOTHIEN-3-YL)(4-CHLOROPHENYL)METHYL]PENTYL}BENZOYL)-β-ALANINE] had a half-inhibitory concentration (IC50) of 0.4 nM.
`CCCC[C@H](c1ccc(C(=O)NCCC(=O)O)cc1)C(c1ccc(Cl)cc1)c1csc2c(C#N)cc(Cl)cc12` (stereo partly drawn) [Example 32, N-(4-{(1S)-1-[(5-CHLORO-7-CYANO-1-BENZOTHIEN-3-YL)(4-CHLOROPHENYL)METHYL]-4-METHYLBUTYL}BENZOYL)-β-ALANINE]: the 50% inhibitory concentration (IC50) was 1 nM.
With `CCC[C@H](c1ccc(C(=O)NCC(F)(F)C(=O)O)cc1)C(c1ccc(Cl)cc1)c1csc2c(Br)cc(C)cc12` (stereo partly drawn) [Example 40, 3-[(4-{(1S)-1-[(5-METHYL-7-BROMO-1-BENZOTHIOPHEN-3-YL)(4-CHLOROPHENYL)METHYL]BUTYL}BENZOYL)AMINO]-2,2-DIFLUOROPROPANOIC ACID], the 50% inhibitory concentration (IC50) worked out at 11.8 nM.
Under `CCC[C@H](c1ccc(C(=O)NCCS(=O)(=O)O)cc1)C(c1ccc(Cl)cc1)c1csc2c(Br)cc(C)cc12` (stereo partly drawn) [Example 43, 2-[(4-{(1S)-1-[(5-METHYL-7-BROMO-1-BENZOTHIOPHEN-3-YL)(4-CHLOROPHENYL)METHYL]BUTYL}BENZOYL)AMINO]ETHANE SULFONIC ACID] stands 3.4 nM; under `CCC[C@H](c1ccc(C(=O)NCCC(=O)O)cc1)C(c1ccc(Cl)cc1)c1sc2ccccc2c1C` (stereo partly drawn) [Example 45, N-[4-((1S)-1-{(4-CHLOROPHENYL)[3-METHYL-1-BENZOTHIEN-2-YL]METHYL}BUTYL)BENZOYL]-β-ALANINE], 1.8 nM.
